Source: US20130045947A1, “PLA2ACTIVITY AS A MARKER FOR OVARIAN AND OTHER GYNECOLOGIC CANCERS” (INDIANA UNIVERSITY RESEARCH AND TECHNOLOGY CORPORATION, priority 2010, published 2013)
Entries after “also recorded” stand apart in the source; their conditions may differ.

Experiments:
[1] = system: RAW 264.7 mouse macrophages; assay: PLA2 activity in conditioned medium (CM) of macrophages; assay type: cell-based; conditions: for effect on PLA2 activity detected in CM: exosome secretion inhibitors, DMA 5 and 12.5 nM, MBC 1 and 2 mM; for order of effectiveness in reducing PLA2 activity of CM: ABC transporter inhibitors; for effect on PLA2 activity of CM: cells treated 4 hr, 17-hr CM, MK571 10-50 μM, CsA 2-50 μM, glyburide 0.1-2 mM, FIG. 12B
[2] = system: SKOV3 cells; assay: Cell migration assay, SKOV3 cells; assay type: cell-based, human; conditions: for stimulation of migration: SKOV3 cells, FIG. 10D; for effect on migration of SKOV3 cells induced by S1 fractions: inhibitor in lower chamber, two different S1 fractions, FIG. 10A
Description: In order to determine whether PLA2 and ATX were functionally involved in ascites-induced migration of EOC cells, the inhibitors MAFP, BEL, and HA130 were added to the lower chambers during the assay. […] The effect of each inhibitor was almost identical whether using S1, S3, or S4 fractions (FIG. 10 and data not shown).

[3] = system: SKOV3 cells; assay: Cell invasion assay; conditions: FIG. 10D
[4] = system: SKOV3 cells; assay: Migration of SKOV3 cells to RAW 264.7 macrophage CM; assay type: cell-based, human; conditions: MK571 50 μM, glyburide 500 μM; FIG. 12C
Description: Referring now to FIG. 12C, CM from RAW 264.7 mouse macrophages was tested to determine if it would stimulate migration of SKOV3 cells. Migration of SKOV3 cells to 17-hr CM from untreated cells and cells treated with inhibitors (MK571, 50 μM, CsA, 10 μM, glyburide, 500 μM, and MAFP, 20 μM). ***, P<0.001 compared to CM. Data is mean and SD of three membranes; experiment repeated twice. An approximately 2-fold increase in migration with the CM compared to the medium control in the bottom well of the migration chamber was found. […] The addition of MAFP to the CM also abrogated migration.

[5] = system: PLA2; assay type: biochemical, human
[6] = system: PLA2; assay type: biochemical, human; conditions: for sensitivity of exosome-associated PLA2 activity to inhibitor: exosomes isolated from human ascites (ExoQuick); for inhibition of ascitic PLA2 activity: cell-free human EOC ascites
[7] = system: tumors; assay: Tumors from control and BEL-treated mice; assay type: in vivo, mouse
Text: Referring now to FIGS. 3A, C and D, PLA2 activities measured from several mouse models for GYN diseases are presented.

[8] = system: PLA2; assay type: biochemical, mouse
[9] = system: EOC metastasis; conditions: with low and non-toxic doses of paclitaxel; shown previously; cited from earlier work
[10] = system: EOC cells; assay: Ascites-stimulated proliferation, migration and invasion of EOC cells; conditions: S1 and S3 specimens
[11] = system: EOC cells; conditions: has been shown (earlier work); cited from earlier work
[12] = system: SKOV3 cells; assay: MTT proliferation assay, ascites-stimulated SKOV3 cells; assay type: cell-based, human; conditions: S1-stimulated; 10 μM Ki16425
[13] = target: sPLA2 (Apis mellifera, UniProt P00630); assay type: biochemical, bee
Sequence of sPLA2 (P00630 34-167 limits assumed): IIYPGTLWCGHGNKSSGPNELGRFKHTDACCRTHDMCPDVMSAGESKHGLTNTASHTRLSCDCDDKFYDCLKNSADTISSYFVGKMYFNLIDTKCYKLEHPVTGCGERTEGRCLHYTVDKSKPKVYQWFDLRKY

Compound: CN(C)c1nc(N)c(C(=O)N=C(N)N)nc1Cl.Cl [DMA, 5,5-(N—N-Dimethyl)-amiloride hydrochloride]
- effect on PLA2 activity detected in CM [1]: Neither inhibitor had any significant effect

Compound: Lysophosphatidylinositol [LPI]
- stimulation of migration [2]: did not stimulate
- stimulation of invasion [3]: did not stimulate

Compound: CN(C)C(=O)CCSC(SCCC(=O)O)c1cccc(/C=C/c2ccc3ccc(Cl)cc3n2)c1 (centres unmarked) [MK571]
- order of effectiveness in reducing PLA2 activity of CM [1]: MK571>glyburide>CsA
- effect on PLA2 activity of CM [1]: dose-responsively reduced
- migration of SKOV3 cells to CM from inhibitor-treated macrophages [4]: did not stimulate migration

Compound: O=C1O/C(=C/Br)CCC1c1cccc2ccccc12 (centres unmarked) [BEL, bromoenol lactone]
- sensitivity of para-nuclear (cancer) PLA2 activities to inhibitor ([5]; frozen human GYN cancer tissue sections, DBPC, FIG. 1D): sensitive
- sensitivity of exosome-associated PLA2 activity to inhibitor [6]: proved sensitive
- tumor size / tumorigenesis ([7]; BEL-treated vs control mice): reduces tumorigenesis; also recorded: significantly smaller
- PLA2 activity in tumors of treated mice ([7]; tumors from BEL-treated vs control mice, FIG. 3B): greatly reduced
- sensitivity of PLA2 activities in normal mouse tissues ([8]; kidney, lung, liver): insensitivity
- effect on sPLA2-like activity of normal mouse kidney tissue ([8]; mouse kidney, FIG. 3E): minimally affected
- effect on migration of SKOV3 cells induced by S1 fractions [2]: dose-dependently reduced
- inhibition of EOC metastasis in combination [9]: can inhibit EOC metastasis
- inhibition of ascites-stimulated proliferation, migration and invasion [10]: 20-40%

Compound: lysophosphatidylcholine [LPC]
- stimulation of EOC cell migration [11]: does not stimulate

Compound: CCCCCCCCCCCCCCCCOC[C@@H](O)COP(=O)([O-])OCC[N+](C)(C)C [lyso-PAF, lyso-platelet activating factor]
- stimulation of migration [2]: did not stimulate
- stimulation of invasion [3]: did not stimulate

Compound: O=C1S/C(=C\c2ccc(OCc3cccc(B(O)O)c3)cc2)C(=O)N1Cc1ccc(F)cc1 [HA130]
- effect on migration of SKOV3 cells induced by S1 fractions [2]: dose-dependently reduced
- inhibition of ascites-stimulated proliferation, migration and invasion [10]: 10-45%

Compound: methyl-β-cyclodextrin [MBC]
- effect on PLA2 activity detected in CM [1]: Neither inhibitor had any significant effect

Compound: Cc1noc(-c2ccc(CSCCC(=O)O)cc2)c1NC(=O)OC(C)c1ccccc1Cl (centres unmarked) [Ki16425]
- proliferation of SKOV3 cells reduced by [12]: 12.4±7.44%
- inhibition of migratory activity induced by S1, S3 and P3 fractions ([2]; SKOV3 cells pretreated with Ki16425 (10 μM), FIG. 10B): > 70%

Compound: COc1ccc(Cl)cc1C(=O)NCCc1ccc(S(=O)(=O)NC(=O)NC2CCCCC2)cc1 [glyburide]
- order of effectiveness in reducing PLA2 activity of CM [1]: MK571>glyburide>CsA
- effect on PLA2 activity of CM [1]: dose-responsively reduced
- migration of SKOV3 cells to CM from inhibitor-treated macrophages [4]: did not stimulate migration

Compound: CCCCCCCC/C=C\CCCCCCCC(=O)O [oleic acid]
- stimulation of migration [2]: did not stimulate
- stimulation of invasion [3]: did not stimulate

Compound: O[C@@H](CS)[C@@H](O)CS [DTT]
- inhibition of ascitic PLA2 activity [6]: did not inhibit

Compound: cyclosporine A [CsA]
- order of effectiveness in reducing PLA2 activity of CM [1]: MK571>glyburide>CsA
- effect on PLA2 activity of CM [1]: dose-responsively reduced

Compound: CCCCCCCCCCCCCCCCSC[C@H](COP(=O)(O)OCC[N+](C)(C)C)NC(=O)CCCCCCCCCCCCCCC [TAPC, thioether amide-PC]
- sensitivity of tumor PLA2 activity to inhibitor ([5]; frozen tumor sections, MAFP 40 μM, TAPC 250 μM, FIG. 7B): but not to an inhibitor of sPLA2
- inhibition of ascitic PLA2 activity [6]: did not inhibit
- sensitivity of exosome-associated PLA2 activity to inhibitor [6]: proved sensitive
- blocking of sPLA2 activity of positive control [13]: blocking sPLA2 activity
